From PubChem BioAssay (NCI)
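Where inhibition never reached the appropriate level, the endpoint shown equals the highest concentration tested. Otherwise, values were interpolated linearly from a five-concentration, 48-hour dose response in 96-well plates. TGI: concentration producing complete growth inhibition.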

Assays:
Test in all cases: NCI tumour cell line growth inhibition, 48 h
CAKI-1 renal = tested on: CAKI-1 renal
IGROV1 ovarian = tested on: IGROV1 ovarian
A498 renal = tested on: A498 renal
LOX IMVI melanoma = tested on: LOX IMVI melanoma
HL-60(TB) leukemia = tested on: HL-60(TB) leukemia
MALME-3M melanoma = tested on: MALME-3M melanoma
U251 CNS = tested on: U251 CNS
OVCAR-3 ovarian = tested on: OVCAR-3 ovarian
A549 NSCLC = tested on: A549 NSCLC
HCT-15 colon = tested on: HCT-15 colon
TK-10 renal = tested on: TK-10 renal
MOLT-4 leukemia = tested on: MOLT-4 leukemia
ACHN renal = tested on: ACHN renal
M14 melanoma = tested on: M14 melanoma
MDA-MB-231 breast = tested on: MDA-MB-231 breast
SF-268 CNS = tested on: SF-268 CNS
NCI-H226 lung = tested on: NCI-H226 lung
KM12 colon = tested on: KM12 colon
NCI-H23 lung = tested on: NCI-H23 lung
MCF7 breast = tested on: MCF7 breast
HCT-116 colon = tested on: HCT-116 colon
HOP-62 NSCLC = tested on: HOP-62 NSCLC
CCRF-CEM leukemia = tested on: CCRF-CEM leukemia
HS 578T breast = tested on: HS 578T breast
SK-OV-3 ovarian = tested on: SK-OV-3 ovarian
SNB-75 CNS = tested on: SNB-75 CNS
786-0 renal = tested on: 786-0 renal
NCI/ADR-RES ovarian = tested on: NCI/ADR-RES ovarian
SF-295 CNS = tested on: SF-295 CNS
EKVX NSCLC = tested on: EKVX NSCLC
SK-MEL-28 melanoma = tested on: SK-MEL-28 melanoma
MDA-N = tested on: MDA-N
K-562 leukemia = tested on: K-562 leukemia
HT29 colon = tested on: HT29 colon
OVCAR-8 ovarian = tested on: OVCAR-8 ovarian
SW-620 colon = tested on: SW-620 colon
NCI-H460 lung = tested on: NCI-H460 lung
COLO 205 colon = tested on: COLO 205 colon
SK-MEL-5 melanoma = tested on: SK-MEL-5 melanoma
BT-549 breast = tested on: BT-549 breast
UACC-257 melanoma = tested on: UACC-257 melanoma
RPMI-8226 leukemia = tested on: RPMI-8226 leukemia
OVCAR-5 ovarian = tested on: OVCAR-5 ovarian
HCC-2998 colon = tested on: HCC-2998 colon
DU-145 prostate = tested on: DU-145 prostate
UO-31 renal = tested on: UO-31 renal
HOP-92 NSCLC = tested on: HOP-92 NSCLC
SNB-19 CNS = tested on: SNB-19 CNS
SK-MEL-2 melanoma = tested on: SK-MEL-2 melanoma
NCI-H522 lung = tested on: NCI-H522 lung
RXF 393 renal = tested on: RXF 393 renal
UACC-62 melanoma = tested on: UACC-62 melanoma
MDA-MB-435 = tested on: MDA-MB-435
OVCAR-4 ovarian = tested on: OVCAR-4 ovarian
PC-3 prostate = tested on: PC-3 prostate
SN12C renal = tested on: SN12C renal
SR leukemia = tested on: SR leukemia
T-47D breast = tested on: T-47D breast
SF-539 CNS = tested on: SF-539 CNS

In the case of `COc1ccc(-c2csc(-n3c(-c4ccccc4)nc4c(Br)cc(Br)cc4c3=O)n2)cc1`, the TGI (CAKI-1 renal) is reported as over 100 µM, the TGI (IGROV1 ovarian) is reported as over 100 µM and the TGI (A498 renal) is reported as 65.9 µM. It also gave a TGI (LOX IMVI melanoma) of over 100 µM, a TGI (HL-60(TB) leukemia) of 49 µM and a TGI (MALME-3M melanoma) of 59.2 µM. The TGI (U251 CNS) was over 100 µM, the TGI (OVCAR-3 ovarian) was over 100 µM and the TGI (A549 NSCLC) was over 100 µM. The TGI (HCT-15 colon) was over 100 µM, the TGI (TK-10 renal) was over 100 µM and the TGI (MOLT-4 leukemia) was over 100 µM. The TGI (ACHN renal) was over 100 µM, the TGI (M14 melanoma) was 96.4 µM and the TGI (MDA-MB-231 breast) was over 100 µM. The TGI (SF-268 CNS) was 67.1 µM, the TGI (NCI-H226 lung) was 90.7 µM and the TGI (KM12 colon) was over 100 µM. The TGI (NCI-H23 lung) was 69.4 µM, the TGI (MCF7 breast) was over 100 µM and the TGI (HCT-116 colon) was 77.1 µM. For the same compound, the TGI (HOP-62 NSCLC) was over 100 µM, the TGI (CCRF-CEM leukemia) was 43.6 µM and the TGI (HS 578T breast) was over 100 µM. It also gave a TGI (SK-OV-3 ovarian) of over 100 µM, a TGI (SNB-75 CNS) of over 100 µM and a TGI (786-0 renal) of 54.4 µM. For the same compound, the TGI (NCI/ADR-RES ovarian) was 85.5 µM, the TGI (SF-295 CNS) was over 100 µM and the TGI (EKVX NSCLC) was 35.1 µM. The TGI (SK-MEL-28 melanoma) was 57.8 µM, the TGI (MDA-N) was 67.7 µM and the TGI (K-562 leukemia) was 58.7 µM. For the same compound, the TGI (HT29 colon) was over 100 µM, the TGI (OVCAR-8 ovarian) was over 100 µM and the TGI (SW-620 colon) was over 100 µM. The TGI (NCI-H460 lung) was over 100 µM, the TGI (COLO 205 colon) was over 100 µM and the TGI (SK-MEL-5 melanoma) was 36.9 µM. The TGI (BT-549 breast) was 88.8 µM, the TGI (UACC-257 melanoma) was over 100 µM and the TGI (RPMI-8226 leukemia) was 31 µM. For the same compound, the TGI (OVCAR-5 ovarian) was over 100 µM, the TGI (HCC-2998 colon) was over 100 µM and the TGI (DU-145 prostate) was over 100 µM. It also gave a TGI (UO-31 renal) of 68.2 µM, a TGI (HOP-92 NSCLC) of 46.7 µM and a TGI (SNB-19 CNS) of over 100 µM. It also gave a TGI (SK-MEL-2 melanoma) of over 100 µM, a TGI (NCI-H522 lung) of over 100 µM and a TGI (RXF 393 renal) of 76.4 µM. The TGI (UACC-62 melanoma) was over 100 µM, the TGI (MDA-MB-435) was 75.4 µM and the TGI (OVCAR-4 ovarian) was over 100 µM. For the same compound, the TGI (PC-3 prostate) was over 100 µM.
`CC1=NCC[N+]1(CCc1ccccc1)Cc1ccccc1` (stereo not given) showed a TGI (IGROV1 ovarian) of over 100 µM, a TGI (A498 renal) of over 100 µM and a TGI (LOX IMVI melanoma) of over 100 µM. It also gave a TGI (HL-60(TB) leukemia) of 68.7 µM, a TGI (MALME-3M melanoma) of over 100 µM and a TGI (U251 CNS) of over 100 µM. It also gave a TGI (OVCAR-3 ovarian) of 91 µM, a TGI (A549 NSCLC) of over 100 µM and a TGI (HCT-15 colon) of over 100 µM. It also gave a TGI (TK-10 renal) of over 100 µM, a TGI (ACHN renal) of over 100 µM and a TGI (M14 melanoma) of over 100 µM. It also gave a TGI (MDA-MB-231 breast) of over 100 µM, a TGI (SF-268 CNS) of over 100 µM and a TGI (NCI-H226 lung) of over 100 µM. For the same compound, the TGI (KM12 colon) was over 100 µM, the TGI (NCI-H23 lung) was over 100 µM and the TGI (SN12C renal) was over 100 µM. The TGI (MCF7 breast) was over 100 µM, the TGI (HCT-116 colon) was over 100 µM and the TGI (HOP-62 NSCLC) was over 100 µM. The TGI (CCRF-CEM leukemia) was over 100 µM, the TGI (HS 578T breast) was over 100 µM and the TGI (SK-OV-3 ovarian) was over 100 µM. It also gave a TGI (SNB-75 CNS) of over 100 µM, a TGI (786-0 renal) of over 100 µM and a TGI (NCI/ADR-RES ovarian) of over 100 µM. The TGI (SF-295 CNS) was over 100 µM, the TGI (EKVX NSCLC) was over 100 µM and the TGI (SK-MEL-28 melanoma) was over 100 µM. It also gave a TGI (MDA-N) of over 100 µM, a TGI (K-562 leukemia) of 31 µM and a TGI (HT29 colon) of over 100 µM. For the same compound, the TGI (OVCAR-8 ovarian) was over 100 µM, the TGI (SW-620 colon) was over 100 µM and the TGI (NCI-H460 lung) was over 100 µM. It also gave a TGI (COLO 205 colon) of 21.5 µM, a TGI (SK-MEL-5 melanoma) of over 100 µM and a TGI (BT-549 breast) of over 100 µM. The TGI (UACC-257 melanoma) was 91.7 µM, the TGI (RPMI-8226 leukemia) was 69.8 µM and the TGI (OVCAR-5 ovarian) was over 100 µM. It also gave a TGI (HCC-2998 colon) of over 100 µM, a TGI (DU-145 prostate) of over 100 µM and a TGI (UO-31 renal) of over 100 µM. It also gave a TGI (HOP-92 NSCLC) of 49.8 µM, a TGI (SNB-19 CNS) of over 100 µM and a TGI (SR leukemia) of over 100 µM. The TGI (T-47D breast) was over 100 µM, the TGI (SK-MEL-2 melanoma) was over 100 µM and the TGI (NCI-H522 lung) was 72.3 µM. The TGI (RXF 393 renal) was over 100 µM, the TGI (UACC-62 melanoma) was over 100 µM and the TGI (OVCAR-4 ovarian) was over 100 µM.
`CC(CCOc1c2ccoc2cc2oc(=O)ccc12)C1=CC(=O)C(C)(C)O1` (stereo not given) showed a TGI (CAKI-1 renal) of over 100 µM, a TGI (IGROV1 ovarian) of over 100 µM and a TGI (LOX IMVI melanoma) of over 100 µM. For the same compound, the TGI (HL-60(TB) leukemia) was over 100 µM, the TGI (MALME-3M melanoma) was over 100 µM and the TGI (U251 CNS) was over 100 µM. For the same compound, the TGI (OVCAR-3 ovarian) was over 100 µM, the TGI (A549 NSCLC) was over 100 µM and the TGI (HCT-15 colon) was over 100 µM. It also gave a TGI (TK-10 renal) of over 100 µM, a TGI (MOLT-4 leukemia) of over 100 µM and a TGI (ACHN renal) of over 100 µM. The TGI (M14 melanoma) was over 100 µM, the TGI (MDA-MB-231 breast) was over 100 µM and the TGI (SF-268 CNS) was over 100 µM. It also gave a TGI (NCI-H226 lung) of over 100 µM, a TGI (KM12 colon) of over 100 µM and a TGI (NCI-H23 lung) of over 100 µM. For the same compound, the TGI (SN12C renal) was over 100 µM, the TGI (MCF7 breast) was over 100 µM and the TGI (HCT-116 colon) was over 100 µM. The TGI (HOP-62 NSCLC) was over 100 µM, the TGI (CCRF-CEM leukemia) was over 100 µM and the TGI (HS 578T breast) was over 100 µM. For the same compound, the TGI (SK-OV-3 ovarian) was over 100 µM, the TGI (SF-539 CNS) was over 100 µM and the TGI (786-0 renal) was over 100 µM. It also gave a TGI (NCI/ADR-RES ovarian) of over 100 µM, a TGI (SF-295 CNS) of over 100 µM and a TGI (EKVX NSCLC) of over 100 µM. For the same compound, the TGI (SK-MEL-28 melanoma) was over 100 µM, the TGI (MDA-N) was over 100 µM and the TGI (K-562 leukemia) was over 100 µM. The TGI (HT29 colon) was over 100 µM, the TGI (OVCAR-8 ovarian) was over 100 µM and the TGI (SW-620 colon) was over 100 µM. It also gave a TGI (NCI-H460 lung) of over 100 µM, a TGI (COLO 205 colon) of over 100 µM and a TGI (SK-MEL-5 melanoma) of over 100 µM. It also gave a TGI (BT-549 breast) of over 100 µM, a TGI (UACC-257 melanoma) of over 100 µM and a TGI (RPMI-8226 leukemia) of over 100 µM. It also gave a TGI (OVCAR-5 ovarian) of over 100 µM, a TGI (HCC-2998 colon) of over 100 µM and a TGI (DU-145 prostate) of over 100 µM. The TGI (UO-31 renal) was over 100 µM, the TGI (HOP-92 NSCLC) was over 100 µM and the TGI (SNB-19 CNS) was over 100 µM. It also gave a TGI (SR leukemia) of over 100 µM, a TGI (SK-MEL-2 melanoma) of over 100 µM and a TGI (NCI-H522 lung) of 71.3 µM. For the same compound, the TGI (RXF 393 renal) was over 100 µM, the TGI (UACC-62 melanoma) was over 100 µM and the TGI (MDA-MB-435) was over 100 µM. It also gave a TGI (OVCAR-4 ovarian) of over 100 µM and a TGI (PC-3 prostate) of over 100 µM.
